According to patent US7863242B2, “Compositions for down-regulation of CCR5 expression and methods of use thereof” (priority 2003, dated 2011):
Like-named read-outs stand apart in the source and are kept apart here.

Assays:
[1] = system: CCR5; experiment: CCR5 surface expression on CD4 and CD8 T lymphocytes in IL-2 cultured PBMCs (flow cytometry, mAb 182); assay type: cell-based, human; conditions: days 7 and 10, five donors tested
Procedure: CCR5 surface expression was measured on PBMCs cultured in the presence of IL-2 for 7-10 days.

[2] = system: CCR5; experiment: CCR5 cell-surface expression on maturing monocytes (CD14-gated flow cytometry); assay type: cell-based, human; conditions: monocytes cultured 5 days, three donors
[3] = system: MIP-1α; experiment: Extracellular MIP-1α level in PBMC culture supernatants (ELISA); assay type: cell-based, human; conditions: day 10, four donors
[4] = system: MIP-1β; experiment: Extracellular MIP-1β level in PBMC culture supernatants (ELISA); assay type: cell-based, human; conditions: for increase of MIP-1β protein versus untreated control: day 10
Procedure: Levels of the β-chemokines MIP-1α, MIP-1β, and RANTES were measured in culture supernatants by using ELISA kits (R & D Systems).
RAPA Increases Extracellular Levels of MIP-1α and MIP-1β in PBMC Cultures: Because lymphocytes and monocytes cultured in the presence of RAPA presented reduced CCR5 RNA and protein levels, the levels of the CCR5 ligands MIP-1α, MIP-1β, and RANTES were measured in supernatants of RAPA-treated PBMC cultures. […] On day 10, percentage of cells expressing CCR5 and supernatant chemokine content were determined for each donor. […] Among the different donors, RAPA-treated cultures contained 6-39-fold higher levels of MIP-1α than untreated cultures. Similarly, MIP-1β levels were increased 17-47-fold in the presence of RAPA as compared with untreated controls. […] Chemokine results obtained in two of the donors, showing disparity of RANTES levels in the presence of RAPA, are depicted in FIG. 3A.
The above results were confirmed by evaluating the effect of RAPA on the secretion of MIP-1β, a chemokine that uses CCR5 as its only receptor, in cultures of PBMCs derived from a donor homozygous for the Δ32 mutation in the CCR5 gene. In this experimental setting, in which MIP-1β cannot be endocytosed by CCR5, the effect of RAPA on MIP-1β protein levels provided information regarding the mechanism by which RAPA increases β-chemokine levels. To this end, stimulated PBMCs from two normal donors and from a CCR5-null donor were cultured in the presence of RAPA as in previous experiments. MIP-1β levels in supernatants were evaluated on day 10. Representative results obtained in one of the normal donors are shown in FIG. 3B next to the results obtained on the CCR5-null donor.

[5] = system: HIV-1 ADA; experiment: microbe, parasite or virus in culture; conditions: for IC50: read-out: Dm (dose at 50% inhibition, equivalent to IC50 value)
Procedure: (§1) Infectivity Assays: The following viruses were used in infection experiments: HIV-1 IIIb, HIV-1 ADA, HIV-1 BaL, HIV-1 JRFL, HIV-1 JRCSF, and HIV-1 SF162. HIV-1 IIIb is a T cell line-adapted lab strain that uses CXCR4 for entry into cells, whereas the rest are isolates that use CCR5. Viruses were obtained from the National Institutes of Health AIDS Research and Reference Reagent Program.
(§2) For infection of PBMCs, fresh donor PBMCs were cultured for 7 days in medium containing IL-2. On day 7, cells were exposed to the virus for 3 h. Nonadsorbed virus was removed by washing cells with PBS three times. Infected cells were cultured in IL-2 medium. Infection of MDMs was carried out as described before (Perno, 1993). Unless otherwise indicated, PBMCs were infected by using an moi of 0.001, and MDM were infected by using an moi of 0.002. Virus growth was monitored in culture supernatants by measuring p24 antigen levels by ELISA (NEN) or by measuring viral RT activity in an RT assay (Willey, 1988).
(§3) Antiviral Activity of RAPA in PBMCs: The antiviral activity of RAPA was assayed in PBMCs that had been cultured in the presence of RAPA for 7 days before infection. Cells were infected with the X4 HIV-1 IIIb and the R5 HIV-1 ADA strains. Infected cells were cultured in the presence of RAPA (same concentration as during pretreatment) for 7 additional days, during which time virus replication and cell viability were measured.
To test this hypothesis, donor PBMCs were cultured in IL-2 medium in the absence or presence of RAPA (1, 10, and 100 nM). […] Infected cells were cultured in the presence of RAPA (same concentration as during pretreatment) plus 0.1 nM TAK-779. Virus production was determined 7 days after infection.
Donor PBMCs were cultured in IL-2 medium in the absence or presence of HU (0 and 10 uM). After 7 days, cells were infected with HIV-1 ADA. Infected cells were cultured in the presence of HU (same concentration as during pretreatment) plus different concentration of TAK-779 ranging from 0, 2 and 20 nM). Virus production was determined 7 days after infection.
In order to determine the nature and degree of interaction between RAPA and T20, infectivity assays were performed in the presence of the drugs, alone and in combination. The infectivity assays were performed using PBMCs from healthy donors. PBMCs were cultured for 7 days in the presence of IL-2 (100 U/ml) in the presence or absence of RAPA. On day 7, cells were infected by exposure to the R5 strain HIV-1 ADA (m.o.i of 0.001) for 2 h. Non-adsorbed virus was removed by 3 washes with PBS. Infected cells were then plated in RPMI-10 supplemented with IL-2 (100 U/ml) in the presence of different concentrations of RAPA and T20. Each drug concentration was tested in triplicate. Medium was changed in day 3 after infection and drugs were added at the same concentration as before. On day 7 after infection, virus production was measured in the culture supernatants using a commercial p24 antigen ELISA (NCI, Frederick). Cell viability was determined using the MTT assay (Roche).
The antiviral data was then analyzed for synergy using two different methodologies, the Median Effect principle and Three Dimensional modeling.

[6] = system: HIV-1 IIIb; experiment: HIV-1 IIIb replication in PBMCs (p24 assay); assay type: cell-based; conditions: Human immunodeficiency virus 1, IIIB, PBMC, 7 days pretreatment, day 7 after infection
Procedure: as §1, §2
as §3, with “Cells were infected with the X4 HIV-1 IIIb and the R5 HIV-1 ADA strains.” left out

[7] = system: R5 strains of HIV-1; experiment: Replication of a panel of five R5 strains of HIV-1 in PBMCs; assay type: cell-based; conditions: Human immunodeficiency virus 1, PBMC
Procedure: as §1, §2
RAPA at 0.01 nM inhibited R5 HIV-1 by 10-64% depending on the strains, whereas 0.1 nM RAPA inhibited virus replication by 15-85%. At 1 nM RAPA, all R5 viruses were inhibited by ≧90%.

[8] = system: HIV-1 ADA; experiment: HIV-1 ADA replication in monocyte-derived macrophages (RT assay); assay type: cell-based
Procedure: as §2
(§4) To this end, donor monocytes were cultured for 5 days in the presence of RAPA. On day 5, cells were infected with HIV-1 ADA. Infected cells were cultured in the presence of RAPA for an additional 14 days. Virus production was measured on the culture supernatants on days 7, 10, and 14 after infection. Cell viability was measured by the MTT assay at the end of the experiment.
In the above-described experiment, monocytes had been pretreated with RAPA during the 5-day differentiation period. To control for the possible interference of RAPA with the process of monocyte differentiation, a new infection experiment in which RAPA was not present during the 5-day monocyte differentiation period was designed. To this end, fresh monocytes were cultured for 5 days in the absence of RAPA. On day 5, cells were infected with HIV-1 ADA and then exposed to RAPA.

[9] = system: HIV-1 SF 162; experiment: HIV-1 SF 162 replication in monocyte-derived macrophages; assay type: cell-based; conditions: Human immunodeficiency virus 1, Macrophage; RAPA at 0.01 nM, additional experiment; read-out: inhibition of HIV-1 SF 162 in MDMs
Procedure: as §2, §4

[10] = system: MDMs; experiment: Cell viability of infected MDMs (MTT assay); assay type: cell-based, human; conditions: end of experiment (day 14 after infection)
Procedure: as §4

[11] = Tolerability of Rapamycin in HIV infected volunteers; assay type: in vivo, human; conditions: 2 mg/day after 6 mg loading dose, 28 days
Procedure: To assess the expression activity of CCR5 and its effects on levels of CCR5 receptors in vivo, an open-labeled, non-randomized proof of concept trial was performed in which 8 volunteers with established HIV infection were given 2 mg/day of Rapamycin, following a 6 mg loading dose, for 28 days. Peripheral blood for determining expression levels of CCR5 was obtained at the screening visit, days 7, 14 and 28 of the Rapamycin dosing, and at day 42 (which was two weeks following the last dose of Rapamycin).

[12] = system: PBMCs; conditions: PBMCs with IL-2, day 7
[13] = system: HIV-1 ADA; experiment: Serial passage of HIV-1 ADA in PBMCs, emergence of T20 resistance (RT assay); assay type: cell-based
Procedure: HIV-1 ADA was passaged in PBMCs 21 times in the presence of RAPA, T-20 or RAPA+T20. After every passage, virus content in the culture supernatant was measured using the RT assay.
HIV-1 replication in the presence of T20 leads to the emergence of drug resistant strains in vitro and in vivo, and this resistance is associated with mutations in the aa 36-45 of gp 41. […] To this end, HIV-1 ADA was passaged weekly for 24 weeks in the presence of RAPA, T20 and RAPA/T20 combined.

[14] = Human immunodeficiency virus 1, PBMC, 168 h, read-out: Fa (fractional inhibition)

Compound: CO[C@H]1C[C@@H]2CC[C@@H](C)[C@@](O)(O2)C(=O)C(=O)N2CCCC[C@H]2C(=O)O[C@H]([C@H](C)C[C@@H]2CC[C@@H](O)[C@H](OC)C2)CC(=O)[C@H](C)/C=C(\C)[C@@H](O)[C@@H](OC)C(=O)[C@H](C)C[C@H](C)/C=C/C=C/C=C/1C [RAPA, rapamycin]
- concentrations that down-regulated CCR5 surface expression on CD4 lymphocytes [1]: ≥ 1 nM
- concentrations giving consistent down-regulation of CCR5 surface expression on monocytes [2]: ≥ 10 pM
- MIP-1α level versus untreated cultures [3]: 6-39 fold
- increase of MIP-1β protein versus untreated control ([4]; CCR5-null donor (Δ32 homozygous)): 1.2 fold
- MIP-1β level versus untreated controls ([4]; day 10, four donors): 17-47 fold
- increase of MIP-1β protein versus untreated control ([4]; normal donor): 9.3 fold
- IC50 ([5]; Human immunodeficiency virus 1, PBMC, 168 h): 0.31 nM
- inhibition at 30 pM [5, 14]: 1.7%
- inhibition at 60 pM [5, 14]: 10.2%
- inhibition at 0.00012 µM [5, 14]: 11.4%
- inhibition at 0.00025 µM [5, 14]: 54%
- inhibition at 0.0005 µM [5, 14]: 62%
- inhibition at 0.001 µM [5, 14]: 88%
- inhibition at 0.01 µM ([6]; 10 nM RAPA): 13.5%
- inhibition at 0.1 µM ([6]; 100 nM RAPA): 32%
- inhibition at 10 pM ([7]; read-out: inhibition of R5 HIV-1, depending on the strains): 10 to 64%
- inhibition at 0.0001 µM ([7]; read-out: inhibition of R5 HIV-1 replication): 15 to 85%
- inhibition at 0.001 µM ([7]; read-out: inhibition of all R5 viruses): ≥ 90%
- inhibition of virus replication in already differentiated macrophages ([8]; 1 nM RAPA added after infection on day 5, day 14 after infection, one value per donor): ~80%
- inhibition at 0.001 µM ([8]; Human immunodeficiency virus 1, Macrophage, 1 nM RAPA added after infection on day 5, day 14 after infection, one value per donor, read-out: inhibition of virus replication in already differentiated macrophages): ~60%
- inhibition at 10 pM ([8]; Human immunodeficiency virus 1, Macrophage, RAPA at 0.01 nM, additional experiment, read-out: inhibition of HIV-1 ADA in MDMs): 64%
- inhibition of virus production in MDMs ([8]; RAPA 0.1-100 nM, present during 5-day differentiation, day 14 after infection): 70-95%
- inhibition at 10 pM [9]: 45%
- concentrations at which cell viability was reduced [10]: ≥ 10 nM
- tolerability [11]: well-tolerated
- drug concentration at which drug toxicity was observed [12]: above 10^3 nM

Compound: enfuvirtide
- Fa (fractional inhibition) ([5]; T-20 1.5 nM alone, p24 day 7): 0.210
- Fa (fractional inhibition) ([5]; T-20 3.12 nM alone, p24 day 7): 0.260
- Fa (fractional inhibition) ([5]; T-20 6.25 nM alone, p24 day 7): 0.400
- Fa (fractional inhibition) ([5]; T-20 12.5 nM alone, p24 day 7): 0.600
- Fa (fractional inhibition) ([5]; T-20 25 nM alone, p24 day 7): 0.810
- Fa (fractional inhibition) ([5]; T-20 50 nM alone, p24 day 7): 0.980
- IC50 ([5]; drug used alone, p24 day 7): 6.16 nM
- antiviral activity on passaged virus ([13]; T20 100 nM, from the 11th passage onwards): did not exert antiviral activity
- sensitivity of passaged virus to T20 ([13]; T20 alone, 10th passage): reduced sensitivity to T20
- inhibition of virus replication ([13]; T20 alone, initial 9 passages): > 75%
